Laboratory results published in US20150018398A1, “METHODS OF USING ESTROGEN RECEPTOR-BETA LIGANDS AS RADIATION MITIGATORS” (The Regents of the University of California, priority 2013, published 2015).
Entries after “also recorded” stand apart in the source; their conditions may differ.

Tests used:
[1] = test system: phospho-serine-1981-ATM (PS-ATM) in A549 cells; assay: RT-induced ATM activation (PS-ATM staining); assay type: cell-based, human; settings: treated 2 h, 5 Gy, stained 2 h after radiation, E2 10 nM, DPN/PPT 1 μM
Description: Phosphoryaltion of ATM is a critical first step in cell responses to RT (FIG. 3). Lung cells treated with control or estrogen for 2 hr were then irradiated and examined after 2 h for ATM activation (FIG. 10).

lung cells = assay: TUNEL assay of apoptosis after RT; assay type: cell-based; settings: E2 10 nM, DPN 1 μM, PPT 1 μM for 2 h, then 15 Gy, TUNEL after 48 h
From the text: Cell death is a measurable outcome due to significant radiation injury.

[2] = test system: MDM2 in A549 lung epithelial cells; assay: MDM2 expression by Western blot; assay type: cell-based, human; settings: E2 10 nM, DPN or PPT 1 μM for 24 h
From the text: Estrogens modulate MDM2 expression in lung cells. MDM2 is well known to bind and inhibit p53 FIG. 3). ERα binds and regulates the MDM2 promoter to stimulate MDM2 expression (see FIG. 12). Indeed, MDM2 SNP309 is reported to occur in an ER binding region of the MDM2 promoter, and affected individuals with SNP309 have increased MDM2 levels mediated by estrogen signaling (33,34).

ERα = target: T1, ERα (Homo sapiens, UniProt P03372); settings: Harrington et al. 2003; cited from earlier work
T1 sequence (P03372 1-595): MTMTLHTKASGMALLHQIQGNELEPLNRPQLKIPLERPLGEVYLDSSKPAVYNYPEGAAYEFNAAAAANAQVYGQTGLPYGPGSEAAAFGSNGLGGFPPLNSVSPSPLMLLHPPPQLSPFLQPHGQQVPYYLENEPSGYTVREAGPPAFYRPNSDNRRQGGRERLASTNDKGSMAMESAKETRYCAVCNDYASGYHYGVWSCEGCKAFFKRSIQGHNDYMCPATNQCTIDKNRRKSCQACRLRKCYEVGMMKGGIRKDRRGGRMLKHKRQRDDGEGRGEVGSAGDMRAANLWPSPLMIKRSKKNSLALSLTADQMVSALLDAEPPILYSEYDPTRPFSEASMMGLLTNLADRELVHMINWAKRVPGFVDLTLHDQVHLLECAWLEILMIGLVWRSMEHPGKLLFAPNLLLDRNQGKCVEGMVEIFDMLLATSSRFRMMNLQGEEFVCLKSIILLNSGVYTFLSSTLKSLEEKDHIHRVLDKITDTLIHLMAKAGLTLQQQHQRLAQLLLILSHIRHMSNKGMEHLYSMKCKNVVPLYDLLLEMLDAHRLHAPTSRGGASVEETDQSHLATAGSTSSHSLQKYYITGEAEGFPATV

[3] = test system: H23 lung epithelial cells with ERβ silencing (ERbKD); assay: Cell survival after irradiation with ERβ siRNA knockdown; assay type: cell-based, human; settings: lung epithelial cells treated with siRNA to suppress ERβ expression
Description: FIG. 8. H23 lung epithelial cells were transfected with control non-specific siRNAs (CON) or smart-pool ESR2 [ERβ] siRNA for ERβ silencing (ERbKD) as before (31,32); control cells were then treated with or without estradiol (E2) and compared with ERbKD cells treated with estradiol for 2 hrs before irradiation at 0-15 Gy as indicated in the figure (n=3 experiments); surviving cell fractions (%) are plotted on a log scale at increasing radiation doses.
To further assess the role of ERβ as a radioprotector and potential radiation mitigator, lung epithelial cells were treated with small inhibitory RNAs (siRNA) to suppress ERβ expression using established methods (Márquez-Garbán D C, Chen H W, Fishbein M C, Goodglick L, Pietras R J. Steroids. 2007 February; 72(2):135-43. Epub 2007 Feb. 5; Márquez D C, Chen H W, Curran E M, Welshons W V, Pietras R J. Mol Cell Endocrinol. 2006 Feb. 26; 246(1-2):91-100. Epub 2006 Jan. 4). […] Thus, ERβ appears to play a critical role in mediating effects of estrogen post-irradiation.

[4] = test system: radiation-damaged reporter DNA in H23 lung cells; assay: Reporter DNA repair assay; assay type: cell-based, human; settings: 24 h after transfection, 2 nM E2, 0.5 nM DPN or ERB
From the text: FIG. 9. […] 15; 59(6):1347-55); data are from 3 experiments (mean±SEM).

[5] = test system: VEGF secretion by H23 lung epithelial cells; assay: VEGF secretion by ELISA after irradiation; assay type: cell-based, human; settings: for VEGF secretion after irradiation: H23, treated 2 hrs before irradiation (10 Gy), ELISA after 24 hrs; for increase in vascular endothelial growth factor (VEGF) secretion: lung epithelial cells pre-treated (E2 2 nM, DPN 5 nM, 2 hrs) before irradiation (10 Gy), P<0.001
[6] = test system: human vascular endothelial cells (HUVEC); assay: Cell survival after irradiation, drug given 24 h after RT (HUVEC); assay type: cell-based; settings: for cell survival post-radiation (radiation mitigation): HUVEC, treatment at 24 hours after irradiation, P<0.001
From the text: (§1) FIGS. 6A-6B. […] 15; 59(6):1347-55).
(§2) ER-selective ligands increase survival of epithelial and endothelial cells post-radiation.

[7] = test system: H23 lung epithelial cells; assay: Cell survival after irradiation (H23 lung epithelial cells); assay type: cell-based, human; settings: P<0.001; for lung cell survival post-radiation: H23, pre-treatment before irradiation
From the text: as §1, §2

[8] = test system: normal human bronchial epithelial (NHBE) cells; assay: Cell viability after irradiation (NHBE cells); assay type: cell-based; settings: 5 nM for 2 h before irradiation (2 Gy), up to 48 h
From the text: An additional experiment was done using normal human bronchial epithelial (NHBE) cells (see FIG. 7). […] These collective findings support the underlying hypothesis on the role of ERβ signaling in modulating radiation sensitivity.

C3H mice = assay: Survival after lethal TBI, C3H mice; assay type: in vivo; settings: for lethality and survival after TBI: male C3H mice, 7.725 Gy TBI, DPN 10 mg/kg SC or ERB-041 50 mg/kg oral gavage daily for 5 days starting 24 h after TBI
From the text: C3H mice were bred and maintained in a strict defined-flora, pathogen-free environment in the AALAC-accredited animal facilities. The UCLA ARC approved all experiments which were done in accord with all local and national guidelines for care and use of animals. Male mice, 9-10 wks old, received 7.725 Gy TBI from a Gamma Cell 40 irradiator (^137Cs source; Atomic Energy of Canada) at a dose rate of 67 cGy/min. […] Mice were monitored for up to 60 days using standard criteria for humane euthanasia as an endpoint and weights were recorded twice/week.

C57/BL6 mice = assay: Survival after lethal TBI, C57/BL6 mice; assay type: in vivo; settings: male C57/BL6 mice; 8.5 Gy TBI; DPN 10 mg/kg SC or ERB-041 50 mg/kg oral gavage daily for 5 days starting 24 hours after TBI; 30 days
From the text: FIG. 15. […] Mice (n=8/group) received 8.5 Gy TBI. […] Controls received appropriate vehicle treatment (e.g. SC [CON SC] or OG [CON OG].
To validate our results above using a different animal model, we used C57/BL6 mice that were also bred and maintained in our AALAC-accredited animal facilities. As above, the UCLA ARC approved all studies. Male mice, 9 weeks-old, in a well-ventilated Lucite chamber without anesthesia received 8.5 Gy TBI from a Gamma Cell 40 irradiator (^137Cs source; Atomic Energy of Canada) at a dose rate of 67 cGy/min. […] Mice were monitored for 30 days using standard criteria for humane euthanasia as an endpoint and weights were recorded twice/week. […] These preliminary findings (FIGS. 14 & 15) provide good evidence to pursue further investigation of ERβ ligands as radiation mitigators.

[9] = in vivo; cited from earlier work
[10] = test system: ERβ-EGFR interaction in H23 lung tumor cells; assay: ERβ-EGFR co-immunoprecipitation; assay type: cell-based, human; settings: DPN treatment
Description: EGF stimulates ERβ-EGFR interaction in epithelial cells. To assess the idea that ERβ interacts with EGFR to promote cross-talk in signaling, the association of these molecules in co-immunoprecipitation studies was tested in vitro (Márquez D C, Lee J, Lin T, Pietras R J. Endocrine. 2001 November; 16(2):73-81) (FIG. 4).

[11] = test system: sublethally-irradiated mice; settings: treatment 24 h before RT; cited from earlier work

Compound	ATM phosphorylation at serine 1981 (nuclear clustering of PS-ATM) after irradiation [1]	radiation-induced apoptosis (lung cells)	MDM2 levels [2]	radioprotective / radiation mitigator effect in cells with ERβ knockdown [3]	repair of radiation-damaged reporter DNA [4]	VEGF secretion after irradiation [5]	increase in vascular endothelial growth factor (VEGF) secretion [5] [fold]	cell survival post-radiation (radiation mitigation) [6]	lung cell survival post-radiation [7]	cell viability / protection from radiation injury ([8]; P<0.001)	lethality and survival after TBI (C3H mice)	lethality and survival after TBI (C57/BL6 mice)	other results
CCCc1c(-c2ccc(O)cc2)nn(-c2ccc(O)cc2)c1-c1ccc(O)cc1 [PPT, Propylpryazoletriol]	not	showed efficacy in suppressing radiation-induced apoptosis	stimulate MDM2 levels	–	–	–	–	–	–	–	–	–	ERα agonism (ERα): potent ERα agonist
C[C@]12CC[C@@H]3c4ccc(O)cc4CC[C@H]3[C@@H]1CC[C@@H]2O [E2, estradiol-17β]	increased	showed efficacy in suppressing radiation-induced apoptosis	stimulate MDM2 levels	failed to show a radioprotective effect	stimulation of enhanced DNA repair after irradiation	stimulate high levels of VEGF secretion	2	–	–	–	–	–	repair of radiation-damaged reporter DNA ([4]; listed as Estrogen): stimulate repair of radiation-damaged reporter DNA
C=Cc1cc(O)cc2nc(-c3ccc(O)c(F)c3)oc12 [ERB-041, (4Z)-4-(7-ethenyl-5-hydroxy-3H-1,3-benzoxazol-2-ylidene)-2-fluorocyclohexa-2,5-dien-1-one]	–	–	–	–	stimulation of enhanced DNA repair after irradiation	–	–	mitigates these effects in HUVEC cells	dose-dependent increase in lung cell survival post-radiation	protect normal epithelial cells from radiation injury	somewhat less efficacious as a radiation mitigator	somewhat less efficacious as a radiation mitigator	cell viability / protection from radiation injury ([8]; P<0.001, listed as ERB): significantly different from control; oral bioavailability [9]: notable oral bioavailability
N#CC(Cc1ccc(O)cc1)c1ccc(O)cc1 (stereo not shown) [DPN, 2,3-bis[4-hydroxyphenyl]-propionitrile]	–	showed efficacy in suppressing radiation-induced apoptosis; also recorded: reduce radiation-induced apoptosis	–	abolished	stimulation of enhanced DNA repair after irradiation; also recorded: stimulates repair of radiation-damaged reporter DNA	stimulate high levels of VEGF secretion	2	mitigates these effects in HUVEC cells	dose-dependent increase in lung cell survival post-radiation	protect normal epithelial cells from radiation injury; also recorded: significantly different from control	protected mice from lethality and improved survival	protects mice from lethality and improves survival	Cell survival ([6]; normal human lung epithelial and vascular endothelial cells in vitro, treatment at 24-hr after irradiation, vs controls P<0.001): significantly improved in a dose-dependent fashion; effect as a radiation mitigator ([7]; H23 cells, treatment at 24 hrs after irradiation, two experiments): comparable effect as a radiation mitigator; VEGF secretion, treatment after irradiation ([5]; treatment at 24 hours after irradiation (10 Gy), vs controls P<0.001): comparable increase in VEGF secretion; also recorded: significant increase in VEGF secretion; post-irradiation survival (C3H mice; mouse models in vivo, subcutaneous, treatment started 24 hours after TBI): 100%; post-irradiation time window (C3H mice; radiation mitigator): > 24 h; interaction of ER-beta with EGFR [10]: promotes interaction of ERβ with EGFR; also recorded: promotes interaction of ER-beta with EGFR
O=c1c(-c2ccc(O)cc2)coc2cc(O)cc(O)c12 [Genistein]	–	–	–	–	–	–	–	–	–	–	–	–	survival of irradiated mice [11]: increased survival without other significant toxicity
